Results on ten compounds are retold here after patent publication US20250304596A1, “PYRAZINE DERIVATIVES AND USES THEREOF” (FOGHORN THERAPEUTICS INC., priority 2022, published 2025).

One assay has as its target T1, HiBit-BRM fusion protein (Homo sapiens, UniProt P51531).
T1 construct: expressed in transfected cells
In words: HiBiT-BRM cell-based degradation assay (Nano-Glo HiBiT Lytic Detection, 24 h). Conditions: stable HeLa cell line expressing HiBiT-BRM; for DC50: read-out: BRM HiBit Degradation IC50. Summed up: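 A stable HeLa line expressing HiBiT-BRM was treated for 24 h with compound in a 10-point, 3-fold series (30 μM final top dose). Remaining HiBiT-BRM was read by lytic LgBiT complementation luminescence. % degradation was normalised to DMSO (high control) and 2 μM reference BRM/BRG1 degrader (low control).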
A general note: With HiBiT, luminescence reflects the tagged protein that the partner subunit can reach.

The target of assay [1] is T2, HiBit-BRG1 fusion protein (Homo sapiens, UniProt P51532).
T2 construct: expressed in transfected cells
In words: HiBiT-BRG1 cell-based degradation assay (Nano-Glo HiBiT Lytic Detection, 24 h). Conditions: stable HeLa cell line expressing HiBit-BRG1 and LgBit; for Dmax: read-out: BRG1 HiBit Degradation Maximum (%); for DC50: read-out: BRMG1 HiBit Degradation IC50. Summed up:
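HeLa cells stably expressing HiBit-BRG1 and LgBit, treated 24 h with 3-fold dilutions (10 points, duplicate, 30 μM final top dose). Luminescence read after Nano-Glo HiBiT lytic reagent; % degradation scaled between DMSO (high) and 2 μM reference BRM/BRG1 degrader (low control).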

Bounds are passed on as bounds.

T1 sequence (P51531 whole entry, the tested form may be a part): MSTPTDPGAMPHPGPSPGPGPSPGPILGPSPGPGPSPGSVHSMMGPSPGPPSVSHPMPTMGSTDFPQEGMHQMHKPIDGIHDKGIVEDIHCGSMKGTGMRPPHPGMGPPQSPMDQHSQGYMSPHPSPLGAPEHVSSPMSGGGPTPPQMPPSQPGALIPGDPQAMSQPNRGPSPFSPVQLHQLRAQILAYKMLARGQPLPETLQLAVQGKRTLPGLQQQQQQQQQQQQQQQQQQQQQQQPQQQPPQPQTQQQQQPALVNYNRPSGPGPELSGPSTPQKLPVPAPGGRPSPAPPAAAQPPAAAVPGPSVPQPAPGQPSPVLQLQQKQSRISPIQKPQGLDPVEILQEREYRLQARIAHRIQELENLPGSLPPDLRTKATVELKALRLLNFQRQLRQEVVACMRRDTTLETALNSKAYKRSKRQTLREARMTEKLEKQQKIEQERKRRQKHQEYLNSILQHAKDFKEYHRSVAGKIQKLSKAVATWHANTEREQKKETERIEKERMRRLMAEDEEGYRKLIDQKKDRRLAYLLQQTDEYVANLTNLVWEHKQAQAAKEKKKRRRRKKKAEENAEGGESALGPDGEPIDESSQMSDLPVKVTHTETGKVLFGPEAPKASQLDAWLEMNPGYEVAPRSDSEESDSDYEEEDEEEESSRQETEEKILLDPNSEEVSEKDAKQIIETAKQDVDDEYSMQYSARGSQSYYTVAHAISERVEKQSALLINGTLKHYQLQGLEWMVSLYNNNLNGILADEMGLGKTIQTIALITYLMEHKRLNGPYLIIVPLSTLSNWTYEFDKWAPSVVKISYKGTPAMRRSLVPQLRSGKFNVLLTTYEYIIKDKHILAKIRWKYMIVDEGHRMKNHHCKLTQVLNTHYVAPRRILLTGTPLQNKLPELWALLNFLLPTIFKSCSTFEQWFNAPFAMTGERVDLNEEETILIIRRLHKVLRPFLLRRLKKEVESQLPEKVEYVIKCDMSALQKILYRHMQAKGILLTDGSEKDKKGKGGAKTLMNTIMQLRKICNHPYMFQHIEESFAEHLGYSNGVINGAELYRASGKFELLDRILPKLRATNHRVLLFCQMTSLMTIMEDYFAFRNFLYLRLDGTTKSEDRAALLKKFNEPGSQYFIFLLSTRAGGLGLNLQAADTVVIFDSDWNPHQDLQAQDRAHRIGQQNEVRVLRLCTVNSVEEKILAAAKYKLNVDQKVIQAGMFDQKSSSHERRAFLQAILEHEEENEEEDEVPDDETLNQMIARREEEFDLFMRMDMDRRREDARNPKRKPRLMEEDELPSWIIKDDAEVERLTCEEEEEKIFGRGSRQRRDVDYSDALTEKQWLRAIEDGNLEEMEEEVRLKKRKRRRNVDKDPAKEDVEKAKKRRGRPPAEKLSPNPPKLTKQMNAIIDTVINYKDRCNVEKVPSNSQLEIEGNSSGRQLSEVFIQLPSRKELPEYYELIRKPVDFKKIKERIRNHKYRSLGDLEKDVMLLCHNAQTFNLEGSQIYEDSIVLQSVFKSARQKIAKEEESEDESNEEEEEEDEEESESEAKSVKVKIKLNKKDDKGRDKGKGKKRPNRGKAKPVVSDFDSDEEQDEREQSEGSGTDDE
T2 sequence (P51532 whole entry, the tested form may be a part): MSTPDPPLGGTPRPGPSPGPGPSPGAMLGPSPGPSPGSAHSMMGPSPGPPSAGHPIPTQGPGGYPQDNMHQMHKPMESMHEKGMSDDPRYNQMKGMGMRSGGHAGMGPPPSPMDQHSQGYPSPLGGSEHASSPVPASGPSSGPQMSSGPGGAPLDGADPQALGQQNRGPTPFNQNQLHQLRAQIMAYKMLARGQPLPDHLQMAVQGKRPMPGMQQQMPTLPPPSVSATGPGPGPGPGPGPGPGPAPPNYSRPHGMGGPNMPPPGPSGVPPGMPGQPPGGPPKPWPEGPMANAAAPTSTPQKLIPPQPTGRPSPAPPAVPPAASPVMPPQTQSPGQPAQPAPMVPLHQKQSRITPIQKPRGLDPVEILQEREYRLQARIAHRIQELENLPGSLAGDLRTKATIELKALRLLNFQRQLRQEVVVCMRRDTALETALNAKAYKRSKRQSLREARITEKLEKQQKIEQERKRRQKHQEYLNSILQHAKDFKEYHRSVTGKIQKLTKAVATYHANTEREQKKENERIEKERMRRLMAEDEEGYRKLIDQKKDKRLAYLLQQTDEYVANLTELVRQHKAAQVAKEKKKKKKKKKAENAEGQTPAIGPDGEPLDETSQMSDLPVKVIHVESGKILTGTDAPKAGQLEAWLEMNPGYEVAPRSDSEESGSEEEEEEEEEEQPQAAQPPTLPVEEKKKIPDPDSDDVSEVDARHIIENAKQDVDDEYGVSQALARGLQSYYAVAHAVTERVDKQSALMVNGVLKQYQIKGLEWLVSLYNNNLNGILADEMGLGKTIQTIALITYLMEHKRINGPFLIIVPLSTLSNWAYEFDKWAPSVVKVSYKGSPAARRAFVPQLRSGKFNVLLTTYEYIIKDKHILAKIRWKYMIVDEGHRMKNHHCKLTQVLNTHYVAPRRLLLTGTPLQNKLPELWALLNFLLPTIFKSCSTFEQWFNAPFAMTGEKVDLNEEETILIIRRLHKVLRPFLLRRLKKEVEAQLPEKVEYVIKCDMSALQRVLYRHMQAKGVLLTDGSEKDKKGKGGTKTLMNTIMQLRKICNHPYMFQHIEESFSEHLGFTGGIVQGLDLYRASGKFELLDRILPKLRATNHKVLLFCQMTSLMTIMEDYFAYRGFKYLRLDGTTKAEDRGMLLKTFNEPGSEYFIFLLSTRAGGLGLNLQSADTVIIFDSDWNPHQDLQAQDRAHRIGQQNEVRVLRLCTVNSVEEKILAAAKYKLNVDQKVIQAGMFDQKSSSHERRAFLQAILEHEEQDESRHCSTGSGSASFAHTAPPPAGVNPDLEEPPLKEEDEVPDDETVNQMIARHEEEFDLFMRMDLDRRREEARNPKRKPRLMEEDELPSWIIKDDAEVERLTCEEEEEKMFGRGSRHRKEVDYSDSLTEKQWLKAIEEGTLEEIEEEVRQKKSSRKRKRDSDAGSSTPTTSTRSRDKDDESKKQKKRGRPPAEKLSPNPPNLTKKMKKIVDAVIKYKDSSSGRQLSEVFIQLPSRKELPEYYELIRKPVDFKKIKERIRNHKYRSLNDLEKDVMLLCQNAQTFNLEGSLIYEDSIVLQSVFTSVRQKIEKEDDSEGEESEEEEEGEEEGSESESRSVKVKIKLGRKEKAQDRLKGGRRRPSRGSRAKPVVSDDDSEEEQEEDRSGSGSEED

As for `Cc1ncsc1-c1ccc([C@H](C)NC(=O)[C@@H]2C[C@@H](O)CN2C(=O)[C@@H](c2cc(N3CC[C@H](c4sc5nnc(-c6ccccc6O)cc5c4C)C3)no2)C(C)C)cc1` [Compound 78, (2S,4R)-4-hydroxy-1-((R)-2-(3-((S)-3-(3-(2-hydroxyphenyl)-5-methylthieno[2,3-c]pyridazin-6-yl)pyrrolidin-1-yl)isoxazol-5-yl)-3-methylbutanoyl)-N-((S)-1-(4-(4-methylthiazol-5-yl)phenyl)ethyl)pyrrolidine-2-carboxamide], at HiBit-BRM fusion protein, the “BRM HiBit Degradation Maximum (%)” value is reported as “A (“A” indicates maximum degradation ≥75%)” and the DC50 is below 10 nM. In assay [1], the Dmax is above 50% and the DC50 was above 10 nM.
With `Cc1ncsc1-c1ccc([C@H](C)NC(=O)[C@@H]2C[C@@H](O)CN2C(=O)[C@@H](c2cc(-c3ncc(N4CCC(c5sc6nnc(-c7ccccc7O)cc6c5C)CC4)cn3)no2)C(C)C)cc1` [Compound 36, (2S,4R)-4-hydroxy-1-((R)-2-(3-(5-(4-(3-(2-hydroxyphenyl)-5-methylthieno[2,3-c]pyridazin-6-yl)piperidin-1-yl)pyrimidin-2-yl)isoxazol-5-yl)-3-methylbutanoyl)-N-((S)-1-(4-(4-methylthiazol-5-yl)phenyl)ethyl)pyrrolidine-2-carboxamide], at HiBit-BRM fusion protein, the “BRM HiBit Degradation Maximum (%)” value is on record as “A (“A” indicates maximum degradation ≥75%)” and the DC50 was above 10 nM. In assay [1], the Dmax is below 50% and the DC50 was above 1000 nM.
For `Cc1ncsc1-c1ccc([C@H](C)NC(=O)[C@@H]2C[C@@H](O)CN2C(=O)[C@@H](c2cc(-c3cnc(CN4CCC(c5cc6cc(-c7ccccc7O)nnc6s5)CC4)nc3)no2)C(C)C)cc1` (single isomer, unassigned) [Compound 99], on HiBit-BRM fusion protein, the “BRM HiBit Degradation Maximum (%)” value is “B (“B” indicates maximum degradation ≥50%)” and the DC50 was above 10 nM. The Dmax in assay [1] is below 50%.
`Cc1ncsc1-c1ccc([C@H](C)NC(=O)[C@@H]2C[C@@H](O)CN2C(=O)[C@@H](c2cc(-c3cnc(N4CCN(c5sc6nnc(-c7ccccc7O)cc6c5C)CC4)nc3)no2)C(C)C)cc1` [Compound 53, (2S,4R)-4-hydroxy-1-((R)-2-(3-(2-(4-(3-(2-hydroxyphenyl)-5-methylthieno[2,3-c]pyridazin-6-yl)piperazin-1-yl)pyrimidin-5-yl)isoxazol-5-yl)-3-methylbutanoyl)-N-((S)-1-(4-(4-methylthiazol-5-yl)phenyl)ethyl)pyrrolidine-2-carboxamide]: on HiBit-BRM fusion protein, the “BRM HiBit Degradation Maximum (%)” value is recorded as “A (“A” indicates maximum degradation ≥75%)” and the DC50 was below 10 nM. Further, in assay [1], the Dmax is above 75% and the DC50 was above 10 nM.
Consider `COc1cc(-c2cc([C@H](C(=O)N3C[C@H](O)C[C@H]3C(=O)N[C@@H](C)c3ccc(-c4scnc4C)cc3)C(C)C)on2)cnc1N1CCC(c2sc3nnc(-c4ccccc4O)cc3c2C)CC1` [Compound 90, (2S,4R)-4-hydroxy-1-((R)-2-(3-(6-(4-(3-(2-hydroxyphenyl)-5-methylthieno[2,3-c]pyridazin-6-yl)piperidin-1-yl)-5-methoxypyridin-3-yl)isoxazol-5-yl)-3-methylbutanoyl)-N-((S)-1-(4-(4-methylthiazol-5-yl)phenyl)ethyl)pyrrolidine-2-carboxamide], for which, on HiBit-BRM fusion protein, the “BRM HiBit Degradation Maximum (%)” value is given as “A (“A” indicates maximum degradation ≥75%)” and the DC50 was below 10 nM. Further, the Dmax in assay [1] was below 50%.
Consider `Cc1cc(N2CCC(c3sc4nnc(-c5ccccc5O)cc4c3C)CC2)ncc1-c1cc([C@H](C(=O)N2C[C@H](O)C[C@H]2C(=O)N[C@@H](C)c2ccc(-c3scnc3C)cc2)C(C)C)on1` [Compound 38, (2S,4R)-4-hydroxy-1-((R)-2-(3-(6-(4-(3-(2-hydroxyphenyl)-5-methylthieno[2,3-c]pyridazin-6-yl)piperidin-1-yl)-4-methylpyridin-3-yl)isoxazol-5-yl)-3-methylbutanoyl)-N-((S)-1-(4-(4-methylthiazol-5-yl)phenyl)ethyl)pyrrolidine-2-carboxamide], for which, at HiBit-BRM fusion protein, the “BRM HiBit Degradation Maximum (%)” value is on record as “A (“A” indicates maximum degradation ≥75%)” and the DC50 is below 10 nM. Moreover, in assay [1], the Dmax was below 50% and the DC50 was above 1000 nM.
Turning to `Cc1ncsc1-c1ccc([C@H](C)NC(=O)[C@@H]2C[C@@H](O)CN2C(=O)[C@@H](c2cc(N3CCC4(CC3)CC(c3cc5nnc(-c6ccccc6O)cc5s3)C4)no2)C(C)C)cc1` [Compound 12, (2S,4R)-4-hydroxy-1-((R)-2-(3-(2-(3-(2-hydroxyphenyl)thieno[3,2-c]pyridazin-6-yl)-7-azaspiro[3.5]nonan-7-yl)isoxazol-5-yl)-3-methylbutanoyl)-N—((S)-1-(4-(4-methylthiazol-5-yl)phenyl)ethyl)pyrrolidine-2-carboxamide], at HiBit-BRM fusion protein, the “BRM HiBit Degradation Maximum (%)” value is on record as “A (“A” indicates maximum degradation ≥75%)” and the DC50 was below 10 nM. Besides, in assay [1], the Dmax is above 50% and the DC50 is above 100 nM.
For the compound `Cc1ncsc1-c1ccc([C@H](C)NC(=O)[C@@H]2C[C@@H](O)CN2C(=O)[C@@H](c2cc(-c3cnc(N4CCC(c5sc6nnc(-c7ccccc7O)cc6c5C5CC5)CC4)nc3)no2)C(C)C)cc1` [Compound 84, (2S,4R)-1-((R)-2-(3-(2-(4-(5-cyclopropyl-3-(2-hydroxyphenyl)thieno[2,3-c]pyridazin-6-yl)piperidin-1-yl)pyrimidin-5-yl)isoxazol-5-yl)-3-methylbutanoyl)-4-hydroxy-N-((S)-1-(4-(4-methylthiazol-5-yl)phenyl)ethyl)pyrrolidine-2-carboxamide], at HiBit-BRM fusion protein, the “BRM HiBit Degradation Maximum (%)” value is on record as “B (“B” indicates maximum degradation ≥50%)” and the DC50 is above 10 nM. The Dmax in assay [1] was below 50%.
As to `Cc1ncsc1-c1ccc([C@H](C)NC(=O)[C@@H]2C[C@@H](O)CN2C(=O)[C@@H](c2cc(-c3cnc(N4CC5(CC(c6sc7nnc(-c8ccccc8O)cc7c6C)C5)C4)nc3)no2)C(C)C)cc1` [Compound 46, (2S,4R)-4-hydroxy-1-((R)-2-(3-(2-(6-(3-(2-hydroxyphenyl)-5-methylthieno[2,3-c]pyridazin-6-yl)-2-azaspiro[3.3]heptan-2-yl)pyrimidin-5-yl)isoxazol-5-yl)-3-methylbutanoyl)-N-((S)-1-(4-(4-methylthiazol-5-yl)phenyl)ethyl)pyrrolidine-2-carboxamide], at HiBit-BRM fusion protein, the “BRM HiBit Degradation Maximum (%)” value is “A (“A” indicates maximum degradation ≥75%)” and the DC50 is below 10 nM. In addition, in assay [1], the Dmax was below 50% and the DC50 is above 1000 nM.
In the case of `Cc1ncsc1-c1ccc([C@H](C)NC(=O)[C@@H]2C[C@@H](O)CN2C(=O)[C@@H](c2cc(-c3cnc(N4CCN(c5cc6nnc(-c7ccccc7O)cc6s5)CC4)nc3)no2)C(C)C)cc1` [Compound 9, (2S,4R)-4-hydroxy-1-{2-[3-(2-{4-[3-(2-hydroxyphenyl)thieno[3,2-c]pyridazin-6-yl]piperazin-1-yl}pyrimidin-5-yl)-1,2-oxazol-5-yl]-3-methylbutanoyl}-N-[(1S)-1-[4-(4-methyl-1,3-thiazol-5-yl)phenyl]ethyl]pyrrolidine-2-carboxamide], at HiBit-BRM fusion protein, the “BRM HiBit Degradation Maximum (%)” value is given as “A (“A” indicates maximum degradation ≥75%)” and the DC50 was below 10 nM. In assay [1], the Dmax was above 75% and the DC50 was above 10 nM.
